# Assay results reported in ChEMBL document CHEMBL3853329, “1,2,4-Triazolyl 5-Azaspiro[2.4]heptanes: Lead Identification and Early Lead Optimization of a New Series of Potent and Selective Dopamine D3 Receptor Antagonists” (J Med Chem, 2016).
# Tests used:
# [1] = in vitro; conditions: rat, liver microsomes
# [2] = in vitro; conditions: human, liver microsomes
# [3] = in vivo; conditions: rat, po, 5 mg/kg
# [4] = in vivo; conditions: rat
# [5] = human, caco-2
# [6] = in vivo; conditions: rat, brain
# [7] = in vivo; conditions: rat, po, 5 mg/kg; remark: listed apart in the source
# [8] = in vivo; conditions: rat, whole blood, iv, 1 mg/kg
# [9] = in vivo; conditions: rat, iv, 1 mg/kg
"microsomal CLint at 0.5 h, 0.5 µM [1]","microsomal CLint at 0.5 h, 0.5 µM [2]",Fa [3],half-life [4],permeability [5],Kp [6],bioavailability [7],clearance [8],Vd [9],SMILES
41 µL/min/mg,155 µL/min/mg,,,,,,,,Cn1c(SCCCN2CC[C@]3(C[C@@H]3c3ccc(C(F)(F)F)cc3)C2)nnc1-c1ccc(C(N)=O)cc1
100 µL/min/mg,447 µL/min/mg,,,,,,,,Cn1c(SCCCN2CC[C@]3(C[C@@H]3c3ccc(C(F)(F)F)cc3)C2)nnc1-c1cccc(-c2ncco2)c1
16 µL/min/mg,41 µL/min/mg,17%,1.9 h,Permeable,0.4,10%,30.2 mL/min/kg,4 L/kg,Cn1c(SCCCN2CC[C@]3(C[C@@H]3c3ccc(C(F)(F)F)cc3)C2)nnc1-c1ccc(=O)n(C)c1
276 µL/min/mg,352 µL/min/mg,,,,,,,,Cn1c(SCCCN2CC[C@]3(C[C@@H]3c3ccc(C(F)(F)F)cc3)C2)nnc1-c1ccc(-c2ncco2)cc1
29 µL/min/mg,106 µL/min/mg,40%,2.2 h,,,26%,19.4 mL/min/kg,3.2 L/kg,Cn1c(SCCCN2CC[C@]3(C[C@@H]3c3ccc(C(F)(F)F)cc3)C2)nnc1-c1ccc(C(N)=O)nc1
103 µL/min/mg,80 µL/min/mg,,,,,,,,Cc1ncccc1-c1nnc(SCCCN2CC[C@]3(C[C@@H]3c3ccc(C(F)(F)F)cc3)C2)n1C
22 µL/min/mg,58 µL/min/mg,,,,,,,,Cn1c(SCCCN2CC[C@]3(C[C@@H]3c3ccc(C(F)(F)F)cc3)C2)nnc1-c1ccc(CC(N)=O)cc1

# Continued, compound first:
SMILES,"microsomal CLint at 0.5 h, 0.5 µM [1]","microsomal CLint at 0.5 h, 0.5 µM [2]",Fa [3],half-life [4],permeability [5],Kp [6],bioavailability [7],clearance [8],Vd [9]
Cc1ccc(-c2nnc(SCCCN3CC[C@]4(C[C@@H]4c4ccc(C(F)(F)F)cc4)C3)n2C)c(C)n1,98 µL/min/mg,299 µL/min/mg,,,,,,,
Cc1ncoc1-c1nnc(SCCCN2CC[C@]3(C[C@H]3c3ccc(C(F)(F)F)cc3)C2)n1C,161 µL/min/mg,22 µL/min/mg,,,,,,,
Cc1ncoc1-c1nnc(SCCCN2CC[C@@]3(C[C@H]3c3ccc(F)cc3F)C2)n1C,161 µL/min/mg,53 µL/min/mg,,,,,,,
Cc1ncoc1-c1nnc(SCCCN2CC[C@]3(C[C@@H]3c3ccc(C(F)(F)F)cc3)C2)n1C,83 µL/min/mg,86 µL/min/mg,,,,,,,
Cc1nc(C(N)=O)ccc1-c1nnc(SCCCN2CC[C@]3(C[C@@H]3c3ccc(C(F)(F)F)cc3)C2)n1C,38 µL/min/mg,299 µL/min/mg,54%,4.3 h,,1.5,39%,21.1 mL/min/kg,5.5 L/kg
Cn1c(SCCCN2CC[C@]3(C[C@@H]3c3ccc(C(F)(F)F)cc3)C2)nnc1C1CCOCC1,59 µL/min/mg,34 µL/min/mg,57%,0.6 h,Permeable,0.3,11%,87.3 mL/min/kg,3.7 L/kg
Cn1c(SCCCN2CC[C@]3(C[C@@H]3c3ccc(C(F)(F)F)cc3F)C2)nnc1-c1cccnc1,278 µL/min/mg,485 µL/min/mg,,,,,,,
Cn1c(SCCCN2CC[C@]3(C[C@@H]3c3ccc(C(F)(F)F)cc3)C2)nnc1C1CCCCC1,201 µL/min/mg,339 µL/min/mg,,,,,,,
Cc1ncoc1-c1nnc(SCCCN2CC[C@@]3(C[C@H]3c3ccc(F)cc3)C2)n1C,73 µL/min/mg,37 µL/min/mg,,,,,,,
Cn1c(SCCCN2CC[C@]3(C[C@@H]3c3ccc(C(F)(F)F)cc3)C2)nnc1-c1cccc(C(N)=O)c1,92 µL/min/mg,187 µL/min/mg,,,,,,,
"Cn1c(SCCCN2CC[C@]3(C[C@@H]3c3ccc(C(F)(F)F)cc3)C2)nnc1C1CCNC(=O)C1 (single isomer, unassigned)",< 11 µL/min/mg,25 µL/min/mg,,,,,,,
"Cn1c(SCCCN2CC[C@]3(C[C@@H]3c3ccc(C(F)(F)F)cc3)C2)nnc1C1CC2CCC(C1)O2 (single isomer, unassigned; enantiomer 1)",21.3 µL/min/mg,50 µL/min/mg,,,,,,80 mL/min/kg,2.6 L/kg
"Cc1ncoc1-c1nnc(SCCCN2CC[C@]3(C[C@H]3c3ccc(F)cc3C(F)(F)F)C2)n1C (single isomer, unassigned; enantiomer 1)",51 µL/min/mg,65 µL/min/mg,,,,,,,
"Cc1ncoc1-c1nnc(SCCCN2CC[C@@]3(C[C@H]3c3ccc(F)cc3C(F)(F)F)C2)n1C (single isomer, unassigned; enantiomer 2)",151 µL/min/mg,320 µL/min/mg,,,,,,,
Cn1c(SCCCN2CC[C@]3(C[C@@H]3c3ccc(C(F)(F)F)cc3)C2)nnc1C1=CCC(=O)N=C1 (stereo in doubt),14 µL/min/mg,28 µL/min/mg,1%,3.4 h,Impermeable,,2%,48 mL/min/kg,9.1 L/kg
